Columns and labels:
[1] = molecular target: T1, Bromodomain-containing protein 4 (Homo sapiens, UniProt O60885); test: Inhibition of poly His-tagged BRD4 BD2 (unknown origin) (348 to 455 residues) by BROMOscan assay
[2] = molecular target: T1, Bromodomain-containing protein 4; test: Inhibition of poly His-tagged BRD4 BD1 (unknown origin) ([…] residues) by BROMOscan assay
[3] = molecular target: T1, Bromodomain-containing protein 4; test: Binding affinity to BRD4 BD1 (unknown origin) assessed as dissociation constant by ITC analysis
[4] = molecular target: T1, Bromodomain-containing protein 4; test: Binding affinity to BRD4 BD2 (unknown origin) assessed as dissociation constant by ITC analysis
[5] = molecular target: von Hippel-Lindau disease tumor suppressor/Bromodomain-containing protein 4 (Homo sapiens, UniProt O60885+P40337); test: Protac activity at BRD4/VHL E3 ligase in human SU-DHL-4 cells assessed as induction of BRD4 degradation incubated for 14 hrs by immunoblot analysis; type: cell-based
von Hippel-Lindau disease tumor suppressor/Bromodomain-containing protein 4, sequence (P40337 whole entry, looked up, other chains not shown): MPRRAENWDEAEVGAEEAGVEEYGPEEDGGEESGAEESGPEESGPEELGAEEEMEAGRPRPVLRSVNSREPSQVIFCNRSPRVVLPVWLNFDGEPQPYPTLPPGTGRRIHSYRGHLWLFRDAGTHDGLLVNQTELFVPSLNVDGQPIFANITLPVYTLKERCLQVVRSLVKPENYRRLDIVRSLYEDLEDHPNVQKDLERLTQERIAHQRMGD

[6] = Antiproliferative activity against human Triple-negative breast cancer cells assessed as cell growth inhibition incubated for 4 days by CellTiter Glo assay; type: functional, cell-based; conditions: 96 h
[7] = molecular target: T1, Bromodomain-containing protein 4; test: Inhibition of poly His-tagged BRD4 BD1 (unknown origin) ([…] residues) by TR-FRET assay
[8] = molecular target: T1, Bromodomain-containing protein 4; test: Inhibition of poly His-tagged BRD4 BD2 (unknown origin) (348 to 455 residues) by TR-FRET assay
Histone deacetylase 3 = Histone deacetylase 3 (Homo sapiens, UniProt O15379); test: Inhibition of recombinant human HDAC3 using Boc-Lys(Ac)-AMC as substrate preincubated for 15 mins followed by substrate addition and measured after 60 mins by fluorescence based assay
Histone deacetylase 3, sequence (O15379 whole entry, the tested form may be a part): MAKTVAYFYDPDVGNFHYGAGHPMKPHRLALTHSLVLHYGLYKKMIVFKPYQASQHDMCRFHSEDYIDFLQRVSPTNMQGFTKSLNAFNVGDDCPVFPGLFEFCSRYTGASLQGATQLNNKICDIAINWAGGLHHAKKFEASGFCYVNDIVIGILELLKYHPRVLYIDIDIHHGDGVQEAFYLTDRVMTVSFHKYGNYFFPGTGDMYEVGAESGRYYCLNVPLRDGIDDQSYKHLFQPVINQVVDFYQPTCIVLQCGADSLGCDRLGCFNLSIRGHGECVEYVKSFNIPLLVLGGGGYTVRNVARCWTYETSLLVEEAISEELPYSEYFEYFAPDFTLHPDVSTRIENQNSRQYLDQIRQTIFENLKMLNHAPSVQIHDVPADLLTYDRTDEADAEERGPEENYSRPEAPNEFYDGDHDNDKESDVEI

[9] = molecular target: T1, Bromodomain-containing protein 4; test: Inhibition of GST-tagged BRD4 BD1 (unknown origin) using H4(1 to 21 residues) biotinylated peptide as substrate at 10 uM incubated for 3 hrs by HTFR assay
[10] = molecular target: Protein cereblon/Bromodomain-containing protein 4 (Homo sapiens, UniProt O60885+Q96SW2); test: Protac activity at CRBN/BRD4 in human SUM149PT assessed as induction of BRD4 degradation incubated for 18 hrs by immunoblot analysis; type: cell-based
Protein cereblon/Bromodomain-containing protein 4, sequence (Q96SW2 whole entry, looked up, other chains not shown): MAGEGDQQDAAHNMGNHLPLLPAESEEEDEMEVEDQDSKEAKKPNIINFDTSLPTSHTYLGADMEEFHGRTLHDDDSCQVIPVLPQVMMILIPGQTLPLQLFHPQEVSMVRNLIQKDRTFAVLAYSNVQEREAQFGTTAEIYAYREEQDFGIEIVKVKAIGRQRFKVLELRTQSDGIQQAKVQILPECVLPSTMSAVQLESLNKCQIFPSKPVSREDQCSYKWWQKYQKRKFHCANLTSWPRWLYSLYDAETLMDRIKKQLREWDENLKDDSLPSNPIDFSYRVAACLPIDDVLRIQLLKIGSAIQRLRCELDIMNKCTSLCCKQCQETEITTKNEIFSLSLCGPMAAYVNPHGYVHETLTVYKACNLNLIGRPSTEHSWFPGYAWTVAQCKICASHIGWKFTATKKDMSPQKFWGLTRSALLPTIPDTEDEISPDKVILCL

Homo sapiens = species: Homo sapiens; test: Selectivity for BRD4 BD1 (unknown origin) over BRD4 BD2 (unknown origin) assessed as fold change
[11] = molecular target: T1, Bromodomain-containing protein 4; test: Inhibition of recombinant human BRD4 BD1 measured after 2 hrs by TR-FRET assay
[12] = molecular target: Poly [ADP-ribose] polymerase 1 (Homo sapiens) (UniProt P09874); test: Inhibition of PARP1 (unknown origin) using NAD+ as substrate incubated for 60 mins by ELISA
Poly [ADP-ribose] polymerase 1 (Homo sapiens), sequence (P09874 whole entry): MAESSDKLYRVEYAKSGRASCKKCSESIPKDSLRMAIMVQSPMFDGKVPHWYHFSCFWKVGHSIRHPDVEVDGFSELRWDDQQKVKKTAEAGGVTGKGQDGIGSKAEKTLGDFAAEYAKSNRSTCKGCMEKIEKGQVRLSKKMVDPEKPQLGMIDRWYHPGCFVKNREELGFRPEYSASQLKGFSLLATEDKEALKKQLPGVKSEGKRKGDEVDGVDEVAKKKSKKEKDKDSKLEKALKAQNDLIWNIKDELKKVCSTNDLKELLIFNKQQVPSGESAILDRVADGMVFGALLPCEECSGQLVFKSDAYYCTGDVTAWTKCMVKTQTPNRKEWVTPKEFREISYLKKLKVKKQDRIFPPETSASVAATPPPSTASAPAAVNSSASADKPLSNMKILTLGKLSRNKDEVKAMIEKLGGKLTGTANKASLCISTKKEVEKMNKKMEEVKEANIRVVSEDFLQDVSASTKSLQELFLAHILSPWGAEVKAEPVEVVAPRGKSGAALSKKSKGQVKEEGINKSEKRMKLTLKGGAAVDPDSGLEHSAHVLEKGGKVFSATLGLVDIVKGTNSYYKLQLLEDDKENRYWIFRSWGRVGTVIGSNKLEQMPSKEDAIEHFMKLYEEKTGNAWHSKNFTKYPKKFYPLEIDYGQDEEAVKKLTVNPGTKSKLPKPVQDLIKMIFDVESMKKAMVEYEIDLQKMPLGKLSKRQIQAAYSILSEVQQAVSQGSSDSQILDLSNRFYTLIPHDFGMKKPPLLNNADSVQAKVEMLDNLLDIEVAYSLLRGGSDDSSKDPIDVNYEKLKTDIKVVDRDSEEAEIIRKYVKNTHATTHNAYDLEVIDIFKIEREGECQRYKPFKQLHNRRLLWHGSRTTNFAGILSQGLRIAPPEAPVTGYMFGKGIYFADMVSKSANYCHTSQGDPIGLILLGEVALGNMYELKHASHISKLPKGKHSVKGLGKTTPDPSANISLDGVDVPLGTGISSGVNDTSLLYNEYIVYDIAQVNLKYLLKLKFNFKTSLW

[13] = molecular target: T1, Bromodomain-containing protein 4; test: Inhibition of recombinant human BRD4 BD2 measured after 2 hrs by TR-FRET assay

Molecule `COC(=O)c1ccc(N[C@@H]2C[C@H](C)N(C(C)=O)c3ccc(-c4cccc(NC(C)=O)c4)cc32)cc1` has an IC50 [1] of 0.42 nM and an IC50 [2] of 27 nM.
Molecule `CC1=C(C)C2C(c3ccc(Cl)cc3)N[C@@](C)(CC(=O)NCCOCCOCCOCC(=O)N[C@H](C(=O)N3C[C@H](O)C[C@H]3C(=O)NCc3ccc(-c4scnc4C)cc3)C(C)(C)C)c3nnc(C)n3C2S1` (some centres not stated) has a Kd [3] of 382 nM and a Kd [4] of 120 nM.
For `Cc1sc2c(c1C)C(c1ccc(Cl)cc1)=N[C@@H](CC(=O)NCCOCCOCCNC(=O)c1cccc(S(=O)(=O)Nc3ccc(C)c4c(C#N)c[nH]c34)c1)c1nnc(C)n1-2`, the DC50 [5] was 10800 nM.
`CCn1nc(C2CC2)cc1Nc1nc(C(=O)NCCCOCCOCCOCCCNc2cccc3c2C(=O)N(C2CCC(=O)NC2=O)C3=O)nc2[nH]c3cc(-c4c(C)noc4C)c(OC)cc3c12` (configuration not stated) gave an IC50 [6] of under 10 nM.
Molecule `CC(=O)N1c2ccc(-c3cc[nH]n3)cc2[C@H](Nc2ccc(C#N)cc2)C[C@@H]1C` has a Kd [7] of 301 nM and a Kd [8] of 2 nM.
`CC(=O)N[C@H](CSCCCCCCNC(=O)C[C@H]1N=C(c2ccc(Cl)cc2)c2c(sc(C)c2C)-n2c(C)nnc21)C(=O)N1C[C@@H](O)C[C@@H]1C(=O)NCc1ccc(-c2scnc2C)cc1` showed a Kd [3] of 44 nM.
Molecule `Cc1noc(C)c1-c1ccc2c(c1)C(Cc1ccc(F)cc1)CN2CCCCCCC(=O)NO` (configuration not stated) has an IC50 (Histone deacetylase 3) of 5 nM and an inhibition [9] of 88%.
Molecule `Cc1sc2c(c1C)C(c1ccc(Cl)cc1)=N[C@@H](CC(=O)NCCCCNC(=O)COc1cccc3c1C(=O)N(C1CCC(=O)NC1=O)C3O)c1nnc(C)n1-2` (some centres not stated) has an EC50 [10] of 430 nM.
For `COCc1nc2cnc3cc(-c4c(C)noc4C)c(OC[C@H]4CCNC4)cc3c2n1[C@H](C)c1ccccc1`, the Selectivity ratio (Homo sapiens) was over 130.
For `CC(=O)Nc1c(F)cc(C(=O)N[C@H]2CC[C@H](O)CC2)cc1O[C@@H](C)c1ccccc1`, the Selectivity ratio (Homo sapiens) was over 300.
`COc1cc(OC)c2c(=O)[nH]c(-c3ccc(OCCOc4ccccc4C(N)=O)cc3)nc2c1` showed an IC50 [11] of 440 nM, an inhibition [12] of under 60% and an IC50 [13] of 379 nM.

Source: ChEMBL document CHEMBL5226295, “Targeting Bromodomain and Extraterminal Proteins for Drug Discovery: From Current Progress to Technological Development” (J Med Chem, 2021)
